ChEMBL document CHEMBL1158277, “N -(Indol-3-ylethyl)-2-hydroxy-3-methylpentanamide, a Novel Indole Derivative from Xenorhabdus nematophilus” (J Nat Prod, 1996)
The source made the active and inactive calls. No cut-off for these calls is given here.

Test system: Bacillus subtilis
Test: Antibacterial activity against Bacillus subtilis at 100 ug/mL
Format: functional, organism-based

SMILES: CC[C@H](C)[C@@H](O)C(=O)NCCc1c[nH]c2ccccc12
- Activity: inactive
